# Measurements: ChEMBL document CHEMBL1135088, “Minimal structural requirements for agonist activity of PAR-2 activating peptides” (Bioorg Med Chem Lett, 2002)
# Non-standard residues stand in square brackets, D forms with d. Residues, ends and D or L forms follow the SMILES beside them. *: point of attachment. Arg(NO2) = N=C(NCCC[C@H](N)C(=O)O)N[N+](=O)[O-]; Bz = O=C(c1ccccc1)*
# Organism: Rattus norvegicus
# Assay: In vitro vasorelaxant activity in male wistar rat thoracic aorta by classical rat aorta relaxation assay; n.a.=not active up to a concentration of 3e-4 M; call rule not given here
# Format: functional
row,Compound,EC50
1,CC(C)C[C@H](NC(=O)[C@H](CCC/N=C(\N)N[N+](=O)[O-])NS(=O)(=O)c1ccccc1)C(N)=O,Not Active
2,CSc1ccc(C(=O)N[C@@H](CCC/N=C(\N)N[N+](=O)[O-])C(=O)N[C@@H](CC(C)C)C(N)=O)cc1,Not Active
3,CC(=O)N[C@@H](CCC/N=C(\N)N[N+](=O)[O-])C(=O)N[C@@H](CC(C)C)C(N)=O (Ac-[Arg(NO2)]-Leu-NH2),Not Active
4,CC(C)C[C@H](NC(=O)[C@H](CCC/N=C(\N)N[N+](=O)[O-])NC(=O)c1ccc(Cl)cc1)C(N)=O,Not Active
5,CC(C)C[C@H](NC(=O)[C@H](CCC/N=C(\N)N[N+](=O)[O-])NC(=O)c1ccc(C#N)cc1)C(N)=O,Not Active
6,CC(C)C[C@H](NC(=O)[C@H](CCC/N=C(\N)N[N+](=O)[O-])NC(=O)c1ccc([N+](=O)[O-])cc1)C(N)=O,Not Active
7,CC(C)C[C@H](NC(=O)[C@H](CCC/N=C(\N)N[N+](=O)[O-])NC(=O)C1CCCCC1)C(N)=O,Not Active
8,CC(C)C[C@H](NC(=O)[C@H](CCC/N=C(\N)N[N+](=O)[O-])NC(=O)c1ccc(C(F)(F)F)cc1)C(N)=O,Not Active

# Organism: Rattus norvegicus
# Assay: In vitro vasorelaxant activity in male wistar rat thoracic aorta by classical rat aorta relaxation assay
# Format: functional
row,Compound,EC50 [µM]
1,CC[C@H](C)[C@H](NC(=O)[C@H](CC(C)C)NC(=O)[C@@H](N)CO)C(=O)NCC(=O)N[C@@H](CCCNC(=N)N)C(=O)N[C@@H](CC(C)C)C(N)=O (H-SLIGRL-NH2),4
2,CC(C)C[C@H](NC(=O)[C@H](CCC/N=C(\N)N[N+](=O)[O-])NC(=O)c1ccccc1)C(N)=O (Bz-[Arg(NO2)]-Leu-NH2),400
3,COc1ccc(C(=O)N[C@@H](CCC/N=C(\N)N[N+](=O)[O-])C(=O)N[C@@H](CC(C)C)C(N)=O)cc1,69
4,CC(C)C[C@H](NC(=O)[C@H](CCC/N=C(\N)N[N+](=O)[O-])NC(=O)c1ccc(OC(F)(F)F)cc1)C(N)=O,20
